# Data as given in US10011596B2, “2-amino-3-fluoro-3-(fluoromethyl)-6-methyl-6-phenyl-3,4,5,6-tetrahydropyridines as BACE1 inhibitors” (H. Lundbeck A/S, priority 2015, dated 2018).
# Legend:
# [1] = target: T1, human BACE1 (Homo sapiens, UniProt P56817); assay: BACE1 binding assay (SPA-based, radioligand displacement); set-up: biotin (biotinylated form); made in house; host or cells: Freestyle HEK293 cells; conditions: pH 4.5, 10 nM radioligand, 6 nM human BACE1, read-out: BACE1 binding affinity
# T1 sequence (P56817 46-501): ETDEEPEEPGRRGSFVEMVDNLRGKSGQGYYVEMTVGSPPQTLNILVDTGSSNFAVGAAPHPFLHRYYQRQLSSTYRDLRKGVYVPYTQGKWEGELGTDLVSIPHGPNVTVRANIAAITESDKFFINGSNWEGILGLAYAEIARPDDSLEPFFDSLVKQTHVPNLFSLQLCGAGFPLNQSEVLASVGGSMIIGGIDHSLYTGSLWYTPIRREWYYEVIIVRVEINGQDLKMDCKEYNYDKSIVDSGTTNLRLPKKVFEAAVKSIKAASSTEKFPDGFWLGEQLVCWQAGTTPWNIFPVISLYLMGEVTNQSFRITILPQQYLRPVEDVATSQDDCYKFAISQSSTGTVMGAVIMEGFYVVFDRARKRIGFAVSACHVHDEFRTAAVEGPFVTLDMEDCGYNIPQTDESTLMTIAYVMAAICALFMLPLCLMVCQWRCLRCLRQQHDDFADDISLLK
# Experimental: The binding assay was performed as SPA-based assay using a biotinylated form of human BACE1 recombinantly expressed and subsequently purified from Freestyle HEK293 cells. The binding assay was run in a 50 mM sodium acetate buffer, pH 4.5 containing 50 mM NaCl and 0.03% Tween-20 in white clear bottom 384 plates (Corning #3653). 10 nM (final concentration) radioligand ([^3H]-N-((1S,2R)-1-benzyl-3-cyclopropylamino-2-hydroxy-propyl)-5-(methanesulfonyl-methyl-amino)-N-((R)-1-phenyl-ethyl)-isophthalamide) (TRQ11569 purchased from GE Healthcare) was mixed with test compound at a given concentration, 6 nM (final concentration) human BACE1 and 25 μg Streptavidin coated PVT core SPA beads (RPNQ0007, GE Healthcare Life Sciences) in a total volume of 40 μl. Several concentrations of each test compound were tested in the assay for IC50 determination. The plates were incubated for one hour at room temperature and counted in a WaIlac Trilux counter. […] For each test compound, a IC50 value (the concentration mediating 50% inhibition of the specific binding of the radioligand) was determined from concentration-response curve and used to calculate the Ki from the equation Ki=IC50/(1+L/Kd), where L and Kd are the final concentration of the radioligand used in the assay and the dissociation constant of the radioligand, respectively. The Kd of the radioligand was determined from saturation binding experiments.
# [2] = target: T1, human BACE1; assay: BACE1 efficacy assay (FRET-based, commercial BACE1 kit); assay type: biochemical; set-up: purchased Life Technologies P2985; conditions: test compound at 10 μM
# Experimental: The efficacy assay was performed as a FRET-based assay using a commercially available BACE1 kit (Life Technologies, P2985). 2 μl test compound at 10 μM (final concentration) and 15 μl BACE1 enzyme from the kit (final concentration 3 nM) were preincubated for 15 minutes at room temperature before addition of 15 μl of substrate from the kit (250 nM final concentration) and incubated for additional 90 minutes at room temperature. The assay plate was subsequently read in a Pherastar (Ex540/Em590).
# [3] = test system: P-gp (MDR1); assay: MDCK-MDR1 assay (permeability, efflux ratio); assay type: in vitro ADME; conditions: dog
# Experimental: The permeability of the test compounds was assessed in MDCK-MDR1 cells that were cultured to confluency (4-6 days) in a 96 transwell plate. Test compounds were diluted with the transport buffer (HBSS+1% BSA) to a concentration of 0.5 μM and applied to the apical or basolateral side of the cell monolayer. Permeation of the test compounds from A to B direction or B to A direction was determined in triplicate over a 60-minute incubation time at 37° C. and 5% CO2 with a relative humidity of 95%. Test compounds were quantified by LC-MS/MS analysis based on the peaks area ratios of analyte/IS in both the receiver and donor wells of the transwell plate.
# The apparent permeability coefficient Papp (cm/s) was calculated using the equation: Papp=(dCr/dt)×Vr/(A×C0)
# Where dCr/dt is the cumulative concentration of compound in the receiver chamber as a function of time (μM/s); Vr is the solution volume in the receiver chamber (0.05 mL on the apical side; 0.25 mL on the basolateral side); A is the surface area for the transport, i.e. 0.0804 cm^2 for the area of the monolayer; C0 is the initial concentration in the donor chamber (μM).
smiles,measurement,setting,value
"Cn1cc(Br)nc1C(=O)Nc1ccc(F)c([C@]2(C)CC[C@@](F)(CF)C(N)=N2)c1 [Compound 7, N-(3-((2S,5S)-6-Amino-5-fluoro-5-(fluoromethyl)-2-methyl-2,3,4,5-tetrahydropyridin-2-yl)-4-fluorophenyl)-4-bromo-1-methyl-1H-imidazole-2-carboxamide]",Ki,[1],67 nM
same,inhibition at 10 µM,[2],104%
"COc1ccc(C(=O)Nc2ccc(F)c([C@]3(C)CC[C@](F)(CF)C(N)=N3)c2)nc1 [Compound 14, N-(3-((2S,5R)-6-Amino-5-fluoro-5-(fluoromethyl)-2-methyl-2,3,4,5-tetrahydropyridin-2-yl)-4-fluorophenyl)-5-methoxypicolinamide]","efflux ratio at 60 min, 0.5 µM",[3],1.06
same,Ki,[1],130 nM
same,inhibition at 10 µM,[2],103%
"C[C@@]1(c2cc(NC(=O)c3ccc(F)cn3)cc(F)c2F)CC[C@@](F)(CF)C(N)=N1 [Compound 15, N-[3-[(2S,5S)-6-Amino-5-fluoro-5-(fluoromethyl)-2-methyl-2,3,4,5-tetrahydropyridin-2-yl]-4,5-difluoro-phenyl]-5-fluoro-pyridine-2-carboxamide]","efflux ratio at 60 min, 0.5 µM",[3],1.17
same,Ki,[1],52 nM
same,inhibition at 10 µM,[2],104%
"Cc1csc(C(=O)Nc2ccc(F)c([C@]3(C)CC[C@@](F)(CF)C(N)=N3)c2)n1 [Compound 8, N-(3-((2S,5S)-6-Amino-5-fluoro-5-(fluoromethyl)-2-methyl-2,3,4,5-tetrahydropyridin-2-yl)-4-fluorophenyl)-4-methylthiazole-2-carboxamide]","efflux ratio at 60 min, 0.5 µM",[3],2.36
same,Ki,[1],62 nM
"COc1ccc(C(=O)Nc2cc(F)c(F)c([C@]3(C)CC[C@@](F)(CF)C(N)=N3)c2)nc1 [Compound 16, N-[3-[(2S,5S)-6-Amino-5-fluoro-5-(fluoromethyl)-2-methyl-2,3,4,5-tetrahydropyridin-2-yl]-4,5-difluoro-phenyl]-5-methoxy-pyridine-2-carboxamide]",inhibition at 10 µM,[2],104%
"NC1=N[C@](CF)(c2cc(NC(=O)c3ccc(F)cn3)ccc2F)CC[C@@]1(F)CF [Compound 21, N-[3-[(2S,5S)-6-amino-5-fluoro-2,5-bis(fluoromethyl)-2,3,4,5-tetrahydropyridin-2-yl]-4-fluoro-phenyl]-5-fluoro-pyridine-2-carboxamide]","efflux ratio at 60 min, 0.5 µM",[3],0.97
same,Ki,[1],67 nM
C[C@@]1(c2cc(NC(=O)c3coc(C(F)F)n3)ccc2F)CC[C@@](F)(CF)C(N)=N1 [Compound 9],"efflux ratio at 60 min, 0.5 µM",[3],8.61
same,Ki,[1],26 nM
same,inhibition at 10 µM,[2],103%
"COc1cnc(C(=O)Nc2cc(F)c(F)c([C@]3(C)CC[C@](F)(CF)C(N)=N3)c2)cn1 [Compound 20, N-[3-[(2S,5R)-6-Amino-5-fluoro-5-(fluoromethyl)-2-methyl-2,3,4,5-tetrahydropyridin-2-yl]-4,5-difluoro-phenyl]-5-methoxy-pyrazine-2-carboxamide]","efflux ratio at 60 min, 0.5 µM",[3],0.77
same,Ki,[1],230 nM
same,inhibition at 10 µM,[2],102%
"COc1cnc(C(=O)Nc2ccc(F)c([C@]3(CF)CC[C@@](F)(CF)C(N)=N3)c2)cn1 [Compound 23, N-[3-[(2S,5S)-6-amino-5-fluoro-2,5-bis(fluoromethyl)-2,3,4,5-tetrahydropyridin-2-yl]-4-fluoro-phenyl]-5-methoxy-pyrazine-2-carboxamide]","efflux ratio at 60 min, 0.5 µM",[3],1.06
same,Ki,[1],17 nM
"COc1ccc(C(=O)Nc2cc(F)c(F)c([C@]3(C)CC[C@](F)(CF)C(N)=N3)c2)nc1 [Compound 19, N-[3-[(2S,5R)-6-Amino-5-fluoro-5-(fluoromethyl)-2-methyl-2,3,4,5-tetrahydropyridin-2-yl]-4,5-difluoro-phenyl]-5-methoxy-pyridine-2-carboxamide]",inhibition at 10 µM,[2],104%
C[C@@]1(c2cc(NC(=O)c3ccn(C(F)F)n3)ccc2F)CC[C@@](F)(CF)C(N)=N1 [Compound 10],"efflux ratio at 60 min, 0.5 µM",[3],10.6
same,Ki,[1],22 nM
same,inhibition at 10 µM,[2],103%
Cc1nc(C(=O)Nc2ccc(F)c([C@]3(C)CC[C@@](F)(CF)C(N)=N3)c2)co1 [Compound 6],"efflux ratio at 60 min, 0.5 µM",[3],7
same,Ki,[1],46 nM
same,inhibition at 10 µM,[2],106%
"C[C@@]1(c2cc(NC(=O)c3ccc(F)cn3)cc(F)c2F)CC[C@](F)(CF)C(N)=N1 [Compound 18, N-[3-[(2S,5R)-6-Amino-5-fluoro-5-(fluoromethyl)-2-methyl-2,3,4,5-tetrahydropyridin-2-yl]-4,5-difluoro-phenyl]-5-fluoro-pyridine-2-carboxamide]",Ki,[1],300 nM
same,inhibition at 10 µM,[2],103%
"C[C@@]1(c2cc(NC(=O)c3ccc(Cl)cn3)ccc2F)CC[C@@](F)(CF)C(N)=N1 [Compound 4, N-(3-((2S,5S)-6-Amino-5-fluoro-5-(fluoromethyl)-2-methyl-2,3,4,5-tetrahydropyridin-2-yl)-4-fluorophenyl)-5-chloropicolinamide]","efflux ratio at 60 min, 0.5 µM",[3],1.34
same,Ki,[1],11 nM
same,inhibition at 10 µM,[2],102%
"Cc1cc(C#N)cnc1C(=O)Nc1ccc(F)c([C@]2(C)CC[C@@](F)(CF)C(N)=N2)c1 [Compound 3, N-(3-((2S,5S)-6-Amino-5-fluoro-5-(fluoromethyl)-2-methyl-2,3,4,5-tetrahydropyridin-2-yl)-4-fluorophenyl)-5-cyano-3-methylpicolinamide]","efflux ratio at 60 min, 0.5 µM",[3],4.87
same,Ki,[1],10 nM
same,inhibition at 10 µM,[2],105%
"COc1cnc(C(=O)Nc2ccc(F)c([C@]3(CF)CC[C@](F)(CF)C(N)=N3)c2)cn1 [Compound 26, N-[3-[(2S,5R)-6-amino-5-fluoro-2,5-bis(fluoromethyl)-2,3,4,5-tetrahydropyridin-2-yl]-4-fluoro-phenyl]-5-methoxy-pyrazine-2-carboxamide]","efflux ratio at 60 min, 0.5 µM",[3],0.92
same,Ki,[1],160 nM
"NC1=N[C@](CF)(c2cc(NC(=O)c3ccc(F)cn3)ccc2F)CC[C@]1(F)CF [Compound 24, N-[3-[(2S,5R)-6-amino-5-fluoro-2,5-bis(fluoromethyl)-2,3,4,5-tetrahydropyridin-2-yl]-4-fluoro-phenyl]-5-fluoro-pyridine-2-carboxamide]","efflux ratio at 60 min, 0.5 µM",[3],0.88
same,Ki,[1],180 nM
"COc1ccc(C(=O)Nc2ccc(F)c([C@]3(C)CC[C@@](F)(CF)C(N)=N3)c2)nc1 [Compound 1, N-(3-((2S,5S)-6-Amino-5-fluoro-5-(fluoromethyl)-2-methyl-2,3,4,5-tetrahydropyridin-2-yl)-4-fluorophenyl)-5-methoxypicolinamide]","efflux ratio at 60 min, 0.5 µM",[3],0.89
same,Ki,[1],22 nM
same,inhibition at 10 µM,[2],106%
"C[C@@]1(c2cc(NC(=O)c3ccc(Cl)cc3)ccc2F)CC[C@@](F)(CF)C(N)=N1 [Compound 12, N-(3-((2S,5S)-6-Amino-5-fluoro-5-(fluoromethyl)-2-methyl-2,3,4,5-tetrahydropyridin-2-yl)-4-fluorophenyl)-4-chlorobenzamide]",Ki,[1],140 nM
same,inhibition at 10 µM,[2],103%
"[2H]C([2H])([2H])Oc1ccc(C(=O)Nc2ccc(F)c([C@]3(C)CC[C@@](F)(CF)C(N)=N3)c2)nc1 [Compound 2, N-(3-((2S,5S)-6-Amino-5-fluoro-5-(fluoromethyl)-2-methyl-2,3,4,5-tetrahydropyridin-2-yl)-4-fluorophenyl)-5-(methoxy-d3)picolinamide]","efflux ratio at 60 min, 0.5 µM",[3],2.32
same,Ki,[1],20 nM
same,inhibition at 10 µM,[2],104%
